Data published in patent US10745410B2, “Substituted [5,6]cyclic-4(3H)-pyrimidinones as anticancer agents” (ZENJI RESEARCH LABORATORIES, priority 2017, dated 2020).
Where a name gives a salt, the structure may show the parent alone.

Key:
[1] = molecular target: CDC7/DBF4 (Homo sapiens (Human), UniProt O00311); assay: CDC7 biochemical assay (ADP-Glo, MCM2 substrate); conditions: ATP 500 uM; MCM2 400 ug/ml; CDC7/DBF4 200 nM; 180 mins at 27° C.; read-out: CDC7 enzyme IC50 (nm)
Method: Biochemical Assay Method N-terminal GST-tagged CDC7 and DBF4 full-length proteins were co-expressed by baculovirus insect expression (BV) system and purified by GST affinity column. Used MCM2 protein as substrate, N-terminal His tag MCM2 was expressed by E. coli and purified by His affinity column. Biochemical assay was tested in the U-shaped bottom 384 plate (corning, #4514) with a final volume of […] at 27° C. The concentration of CDC7 was optimized by the enzyme titration experiment. CDC7 kinase was diluted in assay buffer (40 mM Tris.HCl pH 7.25, 100 ug/mL BSA, and 20 mM MgCl2) to get 2.4× enzyme solutions. Compounds were dissolved in 10 mM DMSO, and series diluted in DMSO from 0.3 mM to 0.3 nM (5 concentration pts); All dilutions were diluted 30× in assay buffer to get 6× compounds solutions. MCM2 Substrate and ATP were diluted to 2.4× mixed solution. Add 2 ul test compound solution to 384 assay plate, then add 5 ul substrate/ATP mixed solution, at last add 5 ul enzyme solution, incubate at 27° C. for 180 mins. Transfer 5 ul reaction solution to another 384 assay plate, then add 5 ul ADP-Glo™ Reagent (Promega) to each well and incubate at 27° C. for 40 mins; Add 10 ul Kinase Detection Reagent (Promega) to each well and incubate at 27° C. for 30 mins. 10 uM CDC7-3 compound was used as 100% inhibition while 100% DMSO control was used as 0% inhibition. Each test has three replications at least. The final concentration of the reagents: ATP was 500 uM; MCM2 was 400 ug/ml; CDC7/DBF4 was 200 nM. The data were obtained by TECAN F200 and calculated by GraphPad Prism 5.0; IC50 values were adjusted by Dose-response-Inhibition-Variable slope model.

[2] = test system: COLO 205 cell line; assay: Proliferation experiment in COLO 205 cell line (CellTiter-Glo); assay type: cell-based; conditions: Homo sapiens, COLO 205 cells, 72 hours
Method: Proliferation experiment in COLO 205 cell line Tissue Culture. Cells were maintained in 10% FBS (Gibco #10099141)/RPMI 1640 (Gibco # A10491). The cells were harvested with 0.25% Trypsin/EDTA (Amresco #9002077), re-suspended in 10% FBS/RPMI 1640 and plated at 8,000 cells per well in 90 ul of media in a 96-well black plate with clear bottoms (Corning #3603). The cells were allowed to incubate overnight in a 37° C., 5% CO2 humidified tissue culture incubator. A 10-point test compound curve was prepared by serial diluting a 10 mM stock 1:3 in DMSO in a 384-well compound plate (costar #3656). The serial diluted compounds were transferred to the plate containing medium for further dilution. The final concentration was from 10 uM to 0.000508 uM. The serial diluted compounds were transferred to the plate containing cells by using a volley ([…]) and the cells were placed back in the incubator for 72 hours. Luminescent detection was carried out with CellTiter-Glo® Luminescent Cell Viability Assay (promega # G7572). Signal was read on TECAN Infinite F200.

Chain of CDC7/DBF4 (O00311 whole entry): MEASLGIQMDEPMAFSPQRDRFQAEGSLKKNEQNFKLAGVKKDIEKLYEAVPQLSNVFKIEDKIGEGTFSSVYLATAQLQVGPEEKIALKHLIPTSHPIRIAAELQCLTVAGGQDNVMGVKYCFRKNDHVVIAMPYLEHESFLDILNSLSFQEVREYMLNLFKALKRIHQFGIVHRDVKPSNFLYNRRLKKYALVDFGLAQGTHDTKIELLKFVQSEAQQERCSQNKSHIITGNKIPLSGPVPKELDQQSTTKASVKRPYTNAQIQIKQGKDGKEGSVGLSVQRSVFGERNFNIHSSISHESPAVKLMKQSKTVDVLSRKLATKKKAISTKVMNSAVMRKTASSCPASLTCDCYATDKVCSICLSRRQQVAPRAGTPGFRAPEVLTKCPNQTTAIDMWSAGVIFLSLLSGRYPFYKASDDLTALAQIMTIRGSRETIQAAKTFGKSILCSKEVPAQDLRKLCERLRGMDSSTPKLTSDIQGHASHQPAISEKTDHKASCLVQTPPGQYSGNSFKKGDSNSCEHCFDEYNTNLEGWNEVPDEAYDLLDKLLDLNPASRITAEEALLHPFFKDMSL
Chain of CDC7/DBF4 (Q9UBU7 whole entry partner): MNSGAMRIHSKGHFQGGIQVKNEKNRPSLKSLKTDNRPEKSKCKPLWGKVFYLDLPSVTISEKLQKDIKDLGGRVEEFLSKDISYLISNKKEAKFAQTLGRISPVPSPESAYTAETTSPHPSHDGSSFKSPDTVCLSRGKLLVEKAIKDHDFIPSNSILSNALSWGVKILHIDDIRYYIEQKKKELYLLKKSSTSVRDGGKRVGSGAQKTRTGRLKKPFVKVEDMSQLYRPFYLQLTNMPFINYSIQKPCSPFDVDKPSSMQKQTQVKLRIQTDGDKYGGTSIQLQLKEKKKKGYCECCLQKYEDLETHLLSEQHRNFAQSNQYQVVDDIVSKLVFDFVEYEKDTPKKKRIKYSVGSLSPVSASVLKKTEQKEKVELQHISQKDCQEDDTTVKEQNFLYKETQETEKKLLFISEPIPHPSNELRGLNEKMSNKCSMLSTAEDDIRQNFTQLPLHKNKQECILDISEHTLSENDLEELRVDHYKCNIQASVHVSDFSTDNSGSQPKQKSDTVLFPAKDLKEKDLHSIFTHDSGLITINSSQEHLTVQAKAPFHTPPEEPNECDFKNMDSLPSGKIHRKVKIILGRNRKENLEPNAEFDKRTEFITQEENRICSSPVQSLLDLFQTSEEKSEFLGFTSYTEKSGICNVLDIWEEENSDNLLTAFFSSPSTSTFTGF

IC50 [1] | GI50 [2] | SMILES
< 0.1 µM | < 0.1 µM | N[C@H](c1nc2cc(-c3ccncc3F)sc2c(=O)[nH]1)C1CC1 [Compound 25, (S)-2-(amino(cyclopropyl)methyl)-6-(3-fluoropyridin-4-yl)thieno[3,2-d]pyrimidin-4(3H)-one hydrochloride]
> 10 µM | > 10 µM | CC(C)[C@H](N)c1nc2cc(-c3cc[nH]c3)sc2c(=O)[nH]1 [Compound 65, (S)-2-(1-amino-2-methylpropyl)-6-(1H-pyrrol-3-yl)thieno[3,2-d]pyrimidin-4(3H)-one hydrochloride]
 | 1 to 10 µM | Cc1cc(-c2cc3nc([C@@H](N)C(C)C)[nH]c(=O)c3s2)ccn1 [Compound 7b, (S)-2-(1-amino-2-methylpropyl)-6-(2-methylpyridin-4-yl)thieno[3,2-d]pyrimidin-4(3H)-one hydrochloride]
 | 0.1 to 1 µM | CC[C@H](N)c1nc2cc(-c3ccnc(F)c3)sc2c(=O)[nH]1 [Compound 13a, (S)-2-(1-aminopropyl)-6-(2-fluoropyridin-4-yl)thieno[3,2-d]pyrimidin-4(3H)-one hydrochloride]
1 to 10 µM | 1 to 10 µM | CC(C)[C@H](N)c1nc2cc(-c3ccnnc3)sc2c(=O)[nH]1 [Compound 49, (S)-2-(1-amino-2-methylpropyl)-6-(pyridazin-4-yl)thieno[3,2-d]pyrimidin-4(3H)-one hydrochloride]
> 10 µM | > 10 µM | CC(C)[C@H](N)c1nc2cc(-c3cnoc3)sc2c(=O)[nH]1 [Compound 7e, (S)-2-(1-amino-2-methylpropyl)-6-(isoxazol-4-yl)thieno[3,2-d]pyrimidin-4(3H)-one hydrochloride]
< 0.1 µM | < 0.1 µM | CC[C@H](N)c1nc2cc(-c3ccncc3F)sc2c(=O)[nH]1 [Compound 13b, (S)-2-(1-aminopropyl)-6-(3-fluoropyridin-4-yl)thieno[3,2-d]pyrimidin-4(3H)-one hydrochloride]
> 10 µM | > 10 µM | CC(C)[C@H](N)c1nc2cc(-c3c[nH]cn3)sc2c(=O)[nH]1 [Compound 45, (S)-2-(1-amino-2-methylpropyl)-6-(1H-imidazol-4-yl)thieno[3,2-d]pyrimidin-4(3H)-one hydrochloride]
0.1 to 1 µM | 0.1 to 1 µM | CC(C)[C@H](N)c1nc2cc(-c3ccncn3)sc2c(=O)[nH]1 [Compound 53, (S)-2-(1-amino-2-methylpropyl)-6-(pyrimidin-4-yl)thieno[3,2-d]pyrimidin-4(3H)-one hydrochloride]
 | 1 to 10 µM | CN[C@H](c1nc2cc(-c3ccnc(F)c3)sc2c(=O)[nH]1)C(C)C [Compound 36, (S)-6-(2-fluoropyridin-4-yl)-2-(2-methyl-1-(methylamino)propyl)thieno[3,2-d]pyrimidin-4(3H)-one hydrochloride]
0.1 to 1 µM | 0.1 to 1 µM | C[C@H](N)c1nc2cc(-c3ccncc3F)sc2c(=O)[nH]1 [Compound 21, (S)-2-(1-aminoethyl)-6-(3-fluoropyridin-4-yl)thieno[3,2-d]pyrimidin-4(3H)-one hydrochloride]
1 to 10 µM | 1 to 10 µM | CC(C)[C@H](N)c1nc2cc(-c3cn[nH]n3)sc2c(=O)[nH]1 [Compound 58, (S)-2-(1-amino-2-methylpropyl)-6-(2H-1,2,3-triazol-4-yl)thieno[3,2-d]pyrimidin-4(3H)-one hydrochloride]
1 to 10 µM | 1 to 10 µM | CC(C)[C@@H](N)c1nc2cc(-c3ccncc3F)sc2c(=O)[nH]1 [Compound 29, (R)-2-(1-amino-2-methylpropyl)-6-(3-fluoropyridin-4-yl)thieno[3,2-d]pyrimidin-4(3H)-one hydrochloride]
1 to 10 µM | > 10 µM | CC(C)[C@H](N)c1nc2cc(N3CCNCC3)sc2c(=O)[nH]1 [Compound 67, (S)-2-(1-amino-2-methylpropyl)-6-(piperazin-1-yl)thieno[3,2-d]pyrimidin-4(3H)-one hydrochloride]
 | 1 to 10 µM | CC(C)[C@H](N)c1nc2cc(-c3ccnc(Cl)c3)sc2c(=O)[nH]1 [Compound 7a, (S)-2-(1-amino-2-methylpropyl)-6-(2-chloropyridin-4-yl)thieno[3,2-d]pyrimidin-4(3H)-one hydrochloride]
1 to 10 µM | > 10 µM | CC(C)[C@H](N)c1nc2cc(-c3cc[nH]n3)sc2c(=O)[nH]1 [Compound 7c, (S)-2-(1-amino-2-methylpropyl)-6-(1H-pyrazol-3-yl)thieno[3,2-d]pyrimidin-4(3H)-one hydrochloride]
0.1 to 1 µM | 0.1 to 1 µM | CC(C)[C@H](N)c1nc2cc(-c3cc(F)ncc3F)sc2c(=O)[nH]1 [Compound 7d, (S)-2-(1-amino-2-methylpropyl)-6-(2,5-difluoropyridin-4-yl)thieno[3,2-d]pyrimidin-4(3H)-one hydrochloride]
1 to 10 µM | 1 to 10 µM | CC(C)(N)c1nc2cc(-c3ccnc(F)c3)sc2c(=O)[nH]1 [Compound 39, 2-(2-aminopropan-2-yl)-6-(2-fluoropyridin-4-yl)thieno[3,2-d]pyrimidin-4(3H)-one hydrochloride]
